From publication PMC3577938 (Organic & biomolecular chemistry, 2013)

Experiments:
human TLR8 = target: T1, human TLR8 (Homo sapiens, UniProt Q9NR97); assay: Human TLR8-specific reporter gene assay; type: cell-based; details: for TLR8-agonistic potency/activity (in words): hTLR8 reporter gene assay; for Agonistic Activity (μM) TLR8: EC50 in human TLR8-specific reporter gene assay, Inactive = EC50 >100 μM
T1 sequence (Q9NR97 27-1041): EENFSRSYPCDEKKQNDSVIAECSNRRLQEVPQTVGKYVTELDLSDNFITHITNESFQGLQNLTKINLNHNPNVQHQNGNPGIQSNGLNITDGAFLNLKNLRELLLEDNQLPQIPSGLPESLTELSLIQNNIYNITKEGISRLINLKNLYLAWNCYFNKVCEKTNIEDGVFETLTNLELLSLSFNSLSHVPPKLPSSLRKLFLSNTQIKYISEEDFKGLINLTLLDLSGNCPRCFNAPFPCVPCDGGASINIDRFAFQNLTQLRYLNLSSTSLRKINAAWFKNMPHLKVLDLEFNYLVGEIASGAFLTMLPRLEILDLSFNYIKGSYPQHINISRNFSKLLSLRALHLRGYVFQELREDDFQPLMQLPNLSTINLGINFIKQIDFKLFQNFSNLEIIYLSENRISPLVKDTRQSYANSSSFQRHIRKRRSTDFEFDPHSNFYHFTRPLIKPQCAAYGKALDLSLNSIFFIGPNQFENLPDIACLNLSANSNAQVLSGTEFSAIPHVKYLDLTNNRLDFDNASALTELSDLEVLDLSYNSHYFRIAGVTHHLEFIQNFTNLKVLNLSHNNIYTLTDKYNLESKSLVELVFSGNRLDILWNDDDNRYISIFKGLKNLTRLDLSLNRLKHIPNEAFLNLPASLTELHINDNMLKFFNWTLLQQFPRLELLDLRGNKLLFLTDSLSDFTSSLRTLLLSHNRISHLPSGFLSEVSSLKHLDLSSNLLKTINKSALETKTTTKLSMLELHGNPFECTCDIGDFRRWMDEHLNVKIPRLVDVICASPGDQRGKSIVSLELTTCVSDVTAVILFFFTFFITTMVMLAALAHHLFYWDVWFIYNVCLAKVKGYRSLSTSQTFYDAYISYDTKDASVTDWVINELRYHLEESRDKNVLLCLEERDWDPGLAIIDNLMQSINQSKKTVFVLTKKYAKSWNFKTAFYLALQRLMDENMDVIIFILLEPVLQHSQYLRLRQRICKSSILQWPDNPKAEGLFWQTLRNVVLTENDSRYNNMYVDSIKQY

human TLR7 = target: T2, human TLR7 (Homo sapiens, UniProt Q9NYK1); assay: Human TLR7-specific reporter gene assay; type: cell-based; details: for Agonistic Activity (μM) TLR7: EC50 in human TLR7-specific reporter gene assay, Inactive = EC50 >100 μM
T2 sequence (Q9NYK1 27-1049): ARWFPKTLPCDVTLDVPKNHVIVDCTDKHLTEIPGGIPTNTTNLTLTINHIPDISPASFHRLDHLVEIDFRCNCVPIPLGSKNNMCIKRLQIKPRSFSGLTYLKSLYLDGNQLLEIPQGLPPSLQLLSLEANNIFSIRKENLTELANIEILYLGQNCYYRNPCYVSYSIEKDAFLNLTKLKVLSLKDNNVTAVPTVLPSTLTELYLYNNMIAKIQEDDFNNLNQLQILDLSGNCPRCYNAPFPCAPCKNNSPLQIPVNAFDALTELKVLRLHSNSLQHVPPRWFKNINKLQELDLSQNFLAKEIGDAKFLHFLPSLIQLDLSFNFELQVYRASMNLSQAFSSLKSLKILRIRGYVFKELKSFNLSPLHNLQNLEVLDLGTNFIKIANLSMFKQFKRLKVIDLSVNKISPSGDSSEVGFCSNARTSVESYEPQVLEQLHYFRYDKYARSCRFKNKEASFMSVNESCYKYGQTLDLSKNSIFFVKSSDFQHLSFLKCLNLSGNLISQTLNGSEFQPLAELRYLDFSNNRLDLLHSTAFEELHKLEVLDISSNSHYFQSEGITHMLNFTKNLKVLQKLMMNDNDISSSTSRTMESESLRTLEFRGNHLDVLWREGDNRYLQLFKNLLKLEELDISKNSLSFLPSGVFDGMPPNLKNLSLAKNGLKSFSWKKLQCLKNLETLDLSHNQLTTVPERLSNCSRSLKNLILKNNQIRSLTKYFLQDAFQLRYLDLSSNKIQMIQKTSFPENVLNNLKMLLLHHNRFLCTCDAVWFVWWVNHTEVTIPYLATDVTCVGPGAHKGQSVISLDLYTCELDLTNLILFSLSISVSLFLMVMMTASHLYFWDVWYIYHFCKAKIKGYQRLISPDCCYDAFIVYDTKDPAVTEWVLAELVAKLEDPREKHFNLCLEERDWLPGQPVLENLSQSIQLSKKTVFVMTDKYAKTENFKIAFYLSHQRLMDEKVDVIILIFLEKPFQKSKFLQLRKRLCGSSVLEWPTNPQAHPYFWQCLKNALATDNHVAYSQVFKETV

Question: `CCCCCc1nc2c(N)nc3ccccc3c2s1` [Compound 8e, 2-pentylthiazolo[4,5-c]quinolin-4-amine] was tested. Which “TLR8-agonistic potency/activity (in words)” value (human TLR8) did it give?
Answer: attenuation of potency

Question: Which “Agonistic Activity (μM) TLR7” value (human TLR7) does the source give for `CCCCCCc1nc2c(N)nc3ccccc3c2s1` [Compound 8f, 2-hexylthiazolo[4,5-c]quinolin-4-amine] here?
Answer: Inactive

Question: What about the “Agonistic Activity (μM) TLR8” value (human TLR8) of the same molecule?
Answer: Inactive^a

Question: With `CCCCCCCc1nc2c(N)nc3ccccc3c2s1` [Compound 8g, 2-heptylthiazolo[4,5-c]quinolin-4-amine] as the molecule, how does the “Agonistic Activity (μM) TLR7” value (human TLR7) read?
Answer: Inactive

Question: And the “Agonistic Activity (μM) TLR8” value (human TLR8)?
Answer: Inactive

Question: For `CCCCCCCCCc1nc2c(N)nc3ccccc3c2s1` [Compound 8h, 2-nonylthiazolo[4,5-c]quinolin-4-amine], which “Agonistic Activity (μM) TLR7” value (human TLR7) is on record?
Answer: Inactive

Question: And the “Agonistic Activity (μM) TLR8” value (human TLR8)?
Answer: Inactive

Question: With `CC(C)c1nc2c(N)nc3ccccc3c2s1` [Compound 8i, 2-isopropylthiazolo[4,5-c]quinolin-4-amine] as the molecule, how does the “attenuation of activity in TLR7-specific reporter gene assays” value (human TLR7; isopropyl at C2, fold attenuation) read?
Answer: about two-fold

Question: And the “reduction in TLR8-agonistic potency” value (human TLR8; isopropyl at C2, fold reduction)?
Answer: approximately ten-fold

Question: `Nc1nc2ccccc2c2sc(CCCC(F)(F)F)nc12` [Compound 8q, 2-(4,4,4-trifluorobutyl)thiazolo[4,5-c]quinolin-4-amine] was tested. Which “TLR8-agonistic potency/activity (in words)” value (human TLR8) did it give?
Answer: decrease in potency

Question: Which “Agonistic Activity (μM) TLR7” value (human TLR7) does the source give for `CCCc1nc2c(N)nc3ccc(-n4cc(C(C)(C)O)nn4)cc3c2s1` [Compound 12a, 2-(1-(4-amino-2-propylthiazolo[4,5-c]quinolin-8-yl)-1H-1,2,3-triazol-4-yl)propan-2-ol] here?
Answer: Inactive

Question: And the “Agonistic Activity (μM) TLR8” value (human TLR8)?
Answer: Inactive

Question: Which “Agonistic Activity (μM) TLR7” value (human TLR7) does the source give for `CCCc1nc2c(N)nc3ccc(-n4cc(CO)nn4)cc3c2s1` [Compound 12b, (1-(4-amino-2-propylthiazolo[4,5-c]quinolin-8-yl)-1H-1,2,3-triazol-4-yl)methanol] here?
Answer: Inactive

Question: What about the “Agonistic Activity (μM) TLR8” value (human TLR8) of the same molecule?
Answer: Inactive

Question: `CCCc1nc2c(N)nc3ccc(-n4cc(-c5ccccc5)nn4)cc3c2s1` [Compound 12c, 8-(4-phenyl-1H-1,2,3-triazol-1-yl)-2-propylthiazolo[4,5-c]quinolin-4-amine] was tested. Which “Agonistic Activity (μM) TLR7” value (human TLR7) did it give?
Answer: Inactive

Question: And the “Agonistic Activity (μM) TLR8” value (human TLR8)?
Answer: Inactive

Question: `CCCc1cn(-c2ccc3nc(N)c4nc(CCC)sc4c3c2)nn1` [Compound 12d, 2-propyl-8-(4-propyl-1H-1,2,3-triazol-1-yl)thiazolo[4,5-c]quinolin-4-amine] was tested. Which “Agonistic Activity (μM) TLR7” value (human TLR7) did it give?
Answer: Inactive

Question: What about the “Agonistic Activity (μM) TLR8” value (human TLR8) of the same molecule?
Answer: Inactive

Question: What does the source list for `CCCCCc1cn(-c2ccc3nc(N)c4nc(CCC)sc4c3c2)nn1` [Compound 12e, 8-(4-pentyl-1H-1,2,3-triazol-1-yl)-2-propylthiazolo[4,5-c]quinolin-4-amine]?
Answer: Agonistic Activity (μM) TLR7 (human TLR7): Inactive; Agonistic Activity (μM) TLR8 (human TLR8): Inactive

Question: For `CCCc1nc2c(N)nc3ccc(-n4cc([Si](C)(C)C)nn4)cc3c2s1` [Compound 12f, 2-propyl-8-(4-(trimethylsilyl)-1H-1,2,3-triazol-1-yl)thiazolo[4,5-c]quinolin-4-amine], which “Agonistic Activity (μM) TLR7” value (human TLR7) is on record?
Answer: Inactive

Question: How did the “Agonistic Activity (μM) TLR7” value (human TLR7) turn out when `CCCc1nc2c(N)nc3ccc(-n4ccnn4)cc3c2s1` [Compound 12g, 2-propyl-8-(1H-1,2,3-triazol-1-yl)thiazolo[4,5-c]quinolin-4-amine] was run?
Answer: Inactive

Question: What about the “Agonistic Activity (μM) TLR8” value (human TLR8) of the same molecule?
Answer: Inactive

Question: How did the “Agonistic Activity (μM) TLR7” value (human TLR7) turn out when `CCCCCCCCCCCCCCCCNc1nc2ccccc2c2sc(CCC)nc12` [Compound 15c, N-hexadecyl-2-propylthiazolo[4,5-c]quinolin-4-amine] was run?
Answer: Inactive

Question: What about the “Agonistic Activity (μM) TLR8” value (human TLR8) of the same molecule?
Answer: Inactive

Question: What does the source list for `CCCc1nc2c(NC(C)=O)nc3ccccc3c2s1` [Compound 15e, N-(2-propylthiazolo[4,5-c]quinolin-4-yl)acetamide]?
Answer: Agonistic Activity (μM) TLR7 (human TLR7): Inactive; TLR8-agonistic potency/activity (in words) (human TLR8): virtually inactive

Question: For `CCCc1nc2c(NC(=O)CCN=[N+]=[N-])nc3ccccc3c2s1` [Compound 15k, 3-azido-N-(2-propylthiazolo[4,5-c]quinolin-4-yl)propanamide], which “Agonistic Activity (μM) TLR7” value (human TLR7) is on record?
Answer: Inactive

Question: Which “Agonistic Activity (μM) TLR7” value (human TLR7) does the source give for `C#CCCC(=O)Nc1nc2ccccc2c2sc(CCC)nc12` [Compound 15l, N-(2-propylthiazolo[4,5-c]quinolin-4-yl)pent-4-ynamide] here?
Answer: Inactive

Question: For `CCCc1nc2c(NC(=O)OC)nc3ccccc3c2s1` [Compound 15m, methyl (2-propylthiazolo[4,5-c]quinolin-4-yl)carbamate], which “Agonistic Activity (μM) TLR7” value (human TLR7) is on record?
Answer: Inactive

Question: What about the “Agonistic Activity (μM) TLR8” value (human TLR8) of the same molecule?
Answer: Weak

Question: What does the source list for `CCCc1nc2c(NC(=O)OCC)nc3ccccc3c2s1` [Compound 15n, ethyl (2-propylthiazolo[4,5-c]quinolin-4-yl)carbamate]?
Answer: Agonistic Activity (μM) TLR7 (human TLR7): Inactive; Agonistic Activity (μM) TLR8 (human TLR8): Inactive

Question: With `CCCCOC(=O)Nc1nc2ccccc2c2sc(CCC)nc12` [Compound 15o, butyl (2-propylthiazolo[4,5-c]quinolin-4-yl)carbamate] as the molecule, how does the “Agonistic Activity (μM) TLR7” value (human TLR7) read?
Answer: Inactive

Question: And the “Agonistic Activity (μM) TLR8” value (human TLR8)?
Answer: Inactive

Question: Which “Agonistic Activity (μM) TLR7” value (human TLR7) does the source give for `CCCCCCCCOC(=O)Nc1nc2ccccc2c2sc(CCC)nc12` [Compound 15p, octyl (2-propylthiazolo[4,5-c]quinolin-4-yl)carbamate] here?
Answer: Inactive

Question: What about the “Agonistic Activity (μM) TLR8” value (human TLR8) of the same molecule?
Answer: Inactive

Question: For `CCCc1nc2c(NS(C)(=O)=O)nc3ccccc3c2s1` [Compound 15r, N-(2-propylthiazolo[4,5-c]quinolin-4-yl)methanesulfonamide], which “Agonistic Activity (μM) TLR7” value (human TLR7) is on record?
Answer: Inactive

Question: Which results are given for `CCCc1nc2c(NS(=O)(=O)CC)nc3ccccc3c2s1` [Compound 15s, N-(2-propylthiazolo[4,5-c]quinolin-4-yl)ethanesulfonamide]?
Answer: Agonistic Activity (μM) TLR7 (human TLR7): Inactive; Agonistic Activity (μM) TLR8 (human TLR8): Inactive

Question: Which “Agonistic Activity (μM) TLR7” value (human TLR7) does the source give for `CCCc1nc2c(NS(=O)(=O)CCC)nc3ccccc3c2s1` [Compound 15t, N-(2-propylthiazolo[4,5-c]quinolin-4-yl)propane-1-sulfonamide] here?
Answer: Inactive

Question: And the “Agonistic Activity (μM) TLR8” value (human TLR8)?
Answer: Inactive

Question: What does the source list for `CCCCS(=O)(=O)Nc1nc2ccccc2c2sc(CCC)nc12` [Compound 15u, N-(2-propylthiazolo[4,5-c]quinolin-4-yl)butane-1-sulfonamide]?
Answer: Agonistic Activity (μM) TLR7 (human TLR7): Inactive; Agonistic Activity (μM) TLR8 (human TLR8): Inactive

Question: Which “Agonistic Activity (μM) TLR7” value (human TLR7) does the source give for `CCCc1nc2c(NS(=O)(=O)c3ccc(C)cc3)nc3ccccc3c2s1` [Compound 15v, 4-methyl-N-(2-propylthiazolo[4,5-c]quinolin-4-yl)benzenesulfonamide] here?
Answer: Inactive

Question: What about the “Agonistic Activity (μM) TLR8” value (human TLR8) of the same molecule?
Answer: Inactive
